Data taken from paper PMC4700278, “Molecular and Biochemical Analysis of the Estrogenic and Proliferative Properties of Vitamin E Compounds” (Frontiers in Oncology, 2016).

Experiments:
MDA-MB-231 (ER(−)) cells = experiment: Cell proliferation assay (sulforhodamine B); type: cell-based, human; details: 500 μM δ-TP or δ-TT; 30 μM lovastatin; 6-day period
Protocol: MCF-7 (ER(+)), T47D (ER(+)), and MDA-MB-231 (ER(−)) cell lines were from ATCC. Cell lines were maintained at 37°C in a humidified incubator in a 5% CO2-enriched atmosphere in T-75 flasks. MCF-7, T47D, and MDA-MB-231 cells were grown routinely in phenol red RPMI 1640 medium supplemented with 5% FBS (Gibco BRL, Life Technologies, Cergy Pontoise, France) and with penicillin–streptomycin. Cells were grown for 24 h before treatment in phenol red-free medium containing 5% DCC-FCS. Cells were seeded into 96-well plates at 2000 cells/well. Treatment media (150 μl/well) was added on the following day and replaced at 48-h intervals until the end of the experiment. Cell density was measured via the sulforhodamine B method ([43]) after 0, 2, 4, 6, and 8 days. The absorbance of SRB was measured directly at 490 nm in the 96-well plates using a multiskan® multisoft reader from Labsystem.
(§1) Figure 4 Effect of tocol on ER(+) and ER(−) BC cell proliferation and HMG-CoA reductase activity. (A) Effect of δ-tocols on estrogen and non-estrogen-regulated growth of MCF-7, T47D, and MDA-MB-231 cells. […] Cells were also treated with 30 μM lovastatin (Lova) in the presence or absence of 5 mM M, as described in Section “Materials and Methods.” Values are shown as means and vertical bars represent SEM. The data were analyzed by two-way ANOVA, followed by Bonferroni post hoc test. ***P < 0.001, **P < 0.01, and *P < 0.05 in comparison with control or bare-linked specific control. Ns: not significant. (B) Effect of δ-TT on hydroxymethylglutaryl coenzyme A reductase (HMGR) activity in MCF-7, T47D, and MDA-MB-231 cells. […] Data shown are the mean values ± SEM from three independent experiments performed in triplicate.

HMG-CoA reductase (HMGR) = target: T1, HMG-CoA reductase (HMGR) (Homo sapiens, UniProt P04035); experiment: HMG-CoA reductase activity in microsomal fraction of treated cells; type: cell-based; details: MCF-7, T47D and MDA-MB-231 cells treated with 500 μM; compared to solvent vehicle-treated cells
T1 construct: endogenous in cells; host or cells: MCF-7, T47D, MDA-MB-231 (microsomal fraction)
T1 sequence (P04035 1-888): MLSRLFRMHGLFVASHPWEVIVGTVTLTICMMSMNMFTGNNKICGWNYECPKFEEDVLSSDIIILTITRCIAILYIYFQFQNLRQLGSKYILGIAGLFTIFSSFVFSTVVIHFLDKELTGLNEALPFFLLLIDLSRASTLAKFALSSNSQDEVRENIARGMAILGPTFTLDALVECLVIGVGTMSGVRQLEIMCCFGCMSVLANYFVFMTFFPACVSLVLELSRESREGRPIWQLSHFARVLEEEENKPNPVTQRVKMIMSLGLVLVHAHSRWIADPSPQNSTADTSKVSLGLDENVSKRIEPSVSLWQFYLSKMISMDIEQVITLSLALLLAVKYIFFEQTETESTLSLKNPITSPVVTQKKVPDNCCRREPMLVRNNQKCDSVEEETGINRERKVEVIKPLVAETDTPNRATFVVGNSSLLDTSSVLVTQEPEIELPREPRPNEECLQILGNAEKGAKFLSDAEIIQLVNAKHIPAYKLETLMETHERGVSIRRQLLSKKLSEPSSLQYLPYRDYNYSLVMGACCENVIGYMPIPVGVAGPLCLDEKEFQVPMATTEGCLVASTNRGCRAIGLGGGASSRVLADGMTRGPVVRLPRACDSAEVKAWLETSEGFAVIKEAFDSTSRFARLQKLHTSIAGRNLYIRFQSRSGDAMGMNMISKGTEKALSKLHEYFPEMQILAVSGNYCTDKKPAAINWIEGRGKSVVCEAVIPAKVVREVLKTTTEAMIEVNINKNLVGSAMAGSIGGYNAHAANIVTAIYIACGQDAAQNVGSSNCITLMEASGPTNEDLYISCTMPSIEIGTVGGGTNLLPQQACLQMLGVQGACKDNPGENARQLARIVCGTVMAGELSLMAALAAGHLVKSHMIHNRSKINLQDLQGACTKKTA
Protocol: as §1

| SMILES | effect on MDA-MB-231 cell proliferation (MDA-MB-231 (ER(−)) cells) | effect on HMGR activity (HMG-CoA reductase (HMGR)) |
| --- | --- | --- |
| Cc1cc(O)cc2c1OC(C)(CCCC(C)CCCC(C)CCCC(C)C)CC2 (stereo not shown) [δ-TP, δ-tocopherol] | no impact | not |
| CC(C)=CCC/C(C)=C/CC/C(C)=C/CC[C@]1(C)CCc2cc(O)cc(C)c2O1 [δ-TT, δ-tocotrienol] | inhibited the proliferation | inhibition of HMGR activity |
